pIC50: −log10 of the molar value.

These results are taken from patent US20200206233A1 (INTEGRAL BIOSCIENCES PRIVATE LIMITED, priority 2018, published 2020).

T1 sequence (O75874 whole entry R132H): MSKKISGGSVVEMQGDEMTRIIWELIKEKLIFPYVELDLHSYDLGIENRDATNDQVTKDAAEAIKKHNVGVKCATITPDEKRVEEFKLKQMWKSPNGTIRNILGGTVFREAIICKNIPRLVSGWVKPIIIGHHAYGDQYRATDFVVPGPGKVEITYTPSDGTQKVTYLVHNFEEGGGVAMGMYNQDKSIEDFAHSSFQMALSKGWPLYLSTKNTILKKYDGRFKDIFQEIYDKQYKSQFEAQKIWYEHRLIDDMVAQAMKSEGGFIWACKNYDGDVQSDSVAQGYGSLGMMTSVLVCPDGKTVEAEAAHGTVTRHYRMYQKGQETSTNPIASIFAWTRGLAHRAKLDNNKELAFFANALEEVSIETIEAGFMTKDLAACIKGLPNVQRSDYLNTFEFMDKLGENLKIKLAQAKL

The test concerns the target T1, IDH1 mutant (R132H) (Homo sapiens, UniProt O75874, R132H).
T1 construct: purchased BPS Bioscience 71099-2
The test is described as follows: Mutant IDH1-R132H Fluorescence Assay (Resazurin based). The format is biochemical. As to conditions: 10 nM IDH1 R132H, 4 mM α-ketoglutarate, NADPH, 1.5 h at room temperature. The method, then: IC50 values of compounds against IDH1 mutant (R132H) was determined by Resazurin based Fluorescence assay. Assays were performed in Buffer (25 mM Tris HCl, 150 mM NaCl, 10 mM MgCl2, 0.03% BSA, 2 mM 1-mercaptoethanol) where total reaction volume was 12.5 μL in low-volume 384-well plates (Cat #4511, Corning). Serially diluted compounds (3-fold) were incubated with cocktail of α-ketoglutarate (4 mM; Cat #75892-25G, Sigma), NADPH ([…]; Cat # N1630-100MG, Sigma) and buffer for 5 min, following IDH1 R132H mutant (10 nM; Cat #71099-2, BPS Bioscience) was added and incubated in dark at room temperature for 1.5 h. After 1.5 h, 6.25 μL detection solution containing Resazurin ([…]; (Cat #62758-13-8, Sigma) and Diaphorase (40 ug/ml; Cat # D2197-300UN, Sigma) in buffer was added and incubated for 15 min. Readings were taken in a Synergy Neo Plate reader (BioTek, Winooski) at single excitation of 540 nm and emission at 590 nm respectively.
The % (percent) activity of test samples was calculated as (Sample−Min)×100/(Max−Min). [Max: DMSO control, complete reaction with enzyme with DMSO and Min: No enzyme with DMSO]. Percent inhibition (100−% activity) was fitted to the “four-parameter logistic model” in XLfit for determination of IC50 values.
Take `Cc1nc(N[C@@H](C)c2ccc(Oc3ccccc3)cc2)nc(N2C(=O)OC[C@@H]2C)n1` [Compound 1.65, (S)-4-methyl-3-(4-methyl-6-((S)-1-(4-phenoxyphenyl)ethylamino)-1,3,5-triazin-2-yl)oxazolidin-2-one]: the pIC50 is 5.58.
As for `CC[C@H]1COC(=O)N1c1nc(C)nc(N[C@H](C)c2ccc(Oc3ccc4ccccc4c3)cc2)n1` [Compound 1.93, (S)-4-ethyl-3-(4-methyl-6-((R)-1-(4-(naphthalen-2-yloxy)phenyl)ethylamino)-1,3,5-triazin-2-yl)oxazolidin-2-one], the negative logarithm of the IC50 (pIC50) was less than 4.52.
For `CC(C)[C@H]1COC(=O)N1c1ncnc(N[C@H](C)c2cn(-c3ccc(Cl)cc3)cn2)n1` [Compound 1.14, (S)-3-(4-((R)-1-(1-(4-chlorophenyl)-1H-imidazol-4-yl)ethylamino)-1,3,5-triazin-2-yl)-4-isopropyloxazolidin-2-one], the negative logarithm of the IC50 (pIC50) was 4.61.
Take `CC[C@H]1COC(=O)N1c1nc(C)nc(N[C@H](C)c2cnc3ccc(Cl)nn23)n1` [Compound 1.70, (S)-3-(4-((R)-1-(6-chloroimidazo[1,2-b]pyridazin-3-yl)ethylamino)-6-methyl-1,3,5-triazin-2-yl)-4-ethyloxazolidin-2-one]: the pIC50 was less than 4.52.
As for `CC[C@H]1COC(=O)N1c1nc(C)nc(N[C@H](C)c2ccc(CN3CCN(C(C)=O)CC3)cc2)n1` [Compound 1.99, (S)-3-(4-((R)-1-(4-((4-acetylpiperazin-1-yl)methyl)phenyl)ethylamino)-6-methyl-1,3,5-triazin-2-yl)-4-ethyloxazolidin-2-one], the negative logarithm of the IC50 (pIC50) is less than 4.52.
For `CC[C@H]1COC(=O)N1c1nc(C)nc(N[C@@H](C)c2cc3cc(Cl)cnc3[nH]c2=O)n1` [Compound 1.49, (S)-3-(4-((S)-1-(6-chloro-2-oxo-1,2-dihydro-1,8-naphthyridin-3-yl)ethylamino)-6-methyl-1,3,5-triazin-2-yl)-4-ethyloxazolidin-2-one] the value was less than 4.52; for `CC[C@H]1COC(=O)N1c1nc(C)nc(N[C@@H](C)c2ccc(C(=O)Nc3ccccc3)cc2)n1` [Compound 1.103, 4-((S)-1-(4-((S)-4-ethyl-2-oxooxazolidin-3-yl)-6-methyl-1,3,5-triazin-2-ylamino)ethyl)-N-phenylbenzamide], less than 4.52; for `CC[C@H]1COC(=O)N1c1nc(C)nc(NCc2cc3cc(Cl)ccc3[nH]c2=O)n1` [Compound 1.57, (S)-3-(4-((6-chloro-2-oxo-1,2-dihydroquinolin-3-yl)methylamino)-6-methyl-1,3,5-triazin-2-yl)-4-ethyloxazolidin-2-one], 5.68.
For `CC[C@H]1COC(=O)N1c1nc(C)nc(N[C@@H](C)c2ccc(Nc3ccccc3)cc2)n1` [Compound 1.89, (S)-4-ethyl-3-(4-methyl-6-((S)-1-(4-(phenylamino)phenyl)ethylamino)-1,3,5-triazin-2-yl)oxazolidin-2-one] the value was 5.85; for `CC[C@H]1COC(=O)N1c1nc(C)nc(N[C@@H](C)c2ccc(-c3ccc(F)c(C)c3)cn2)n1` [Compound 1.68, (S)-4-ethyl-3-(4-((S)-1-(5-(4-fluoro-3-methylphenyl)pyridin-2-yl)ethylamino)-6-methyl-1,3,5-triazin-2-yl)oxazolidin-2-one], 5.80; for `CC[C@H]1COC(=O)N1c1nc(C)nc(N[C@H](C)c2cc3cc(Cl)c(OC)cc3[nH]c2=O)n1` [Compound 1.43, (S)-3-(4-((R)-1-(6-chloro-7-methoxy-2-oxo-1,2-dihydroquinolin-3-yl)ethylamino)-6-methyl-1,3,5-triazin-2-yl)-4-ethyloxazolidin-2-one], 5.17.
For `CC[C@H]1COC(=O)N1c1nc(C)nc(N[C@@H](C)c2cc3cc(OC)ccc3[nH]c2=O)n1` [Compound 1.55, (S)-4-ethyl-3-(4-((S)-1-(6-methoxy-2-oxo-1,2-dihydroquinolin-3-yl)ethylamino)-6-methyl-1,3,5-triazin-2-yl)oxazolidin-2-one] the value was 5.90; for `CC[C@H]1COC(=O)N1c1nc(C)nc(N[C@@H](C)c2ccc(OCc3ccccc3)cc2)n1` [Compound 1.73, (S)-3-(4-((S)-1-(4-(benzyloxy)phenyl)ethylamino)-6-methyl-1,3,5-triazin-2-yl)-4-ethyloxazolidin-2-one], 4.81; for `CC[C@H]1COC(=O)N1c1nc(N[C@@H](C)c2ccc(Oc3ccccc3)cc2)nc(C2CC2)n1` [Compound 1.71, (S)-3-(4-cyclopropyl-6-((S)-1-(4-phenoxyphenyl)ethylamino)-1,3,5-triazin-2-yl)-4-ethyloxazolidin-2-one], 5.61.
For `CC[C@H]1COC(=O)N1c1nc(C)nc(N[C@H](C)c2cc3ccccc3[nH]c2=O)n1` [Compound 1.46, (S)-4-ethyl-3-(4-methyl-6-((R)-1-(2-oxo-1,2-dihydroquinolin-3-yl)ethylamino)-1,3,5-triazin-2-yl) oxazolidin-2-one], the pIC50 was less than 4.52.
In the case of `CC[C@H]1COC(=O)N1c1nc(C)nc(NC(C)(C)c2ccc(Oc3ccccc3)cc2)n1` [Compound 1.111, (S)-4-ethyl-3-(4-methyl-6-(2-(4-phenoxyphenyl)propan-2-ylamino)-1,3,5-triazin-2-yl)oxazolidin-2-one], the pIC50 was 5.60.
The value for `CC[C@H]1COC(=O)N1c1nc(C)nc(N[C@H](C)c2cn3cc(Br)ccc3n2)n1` [Compound 1.48, (S)-3-(4-((R)-1-(6-bromoimidazo[1,2-a]pyridin-2-yl)ethylamino)-6-methyl-1,3,5-triazin-2-yl)-4-ethyloxazolidin-2-one] was less than 4.52.
For `CC[C@H]1COC(=O)N1c1nc(C)nc(N[C@@H](C)c2ccc3c(-c4ccccc4)c[nH]c3c2)n1` [Compound 1.100, (S)-4-ethyl-3-(4-methyl-6-((S)-1-(3-phenyl-1H-indol-6-yl)ethylamino)-1,3,5-triazin-2-yl)oxazolidin-2-one] the value was 5.65; for `CC[C@H]1COC(=O)N1c1nc(C)nc(NC(C)c2cn(-c3ccc(Cl)cc3)cn2)n1` (single isomer, unassigned) [Compound 1.51], less than 4.64.
Take `CC[C@H]1COC(=O)N1c1nc(C)nc(N[C@@H](C)c2cc3cc(-c4ccc(Cl)cc4)ccc3[nH]c2=O)n1` [Compound 1.106, (S)-3-(4-((S)-1-(6-(4-chlorophenyl)-2-oxo-1,2-dihydroquinolin-3-yl)ethylamino)-6-methyl-1,3,5-triazin-2-yl)-4-ethyloxazolidin-2-one]: the pIC50 was less than 4.52.
For `CC[C@H]1COC(=O)N1c1nc(C)nc(N[C@@H](C)c2ccc3c(ccn3-c3ccccc3)c2)n1` [Compound 1.90, (S)-4-ethyl-3-(4-methyl-6-((S)-1-(1-phenyl-1H-indol-5-yl)ethylamino)-1,3,5-triazin-2-yl)oxazolidin-2-one] the value was 5.81.
As for `CC[C@H]1COC(=O)N1c1nc(C)nc(N[C@@H](C)c2cn3cc(Br)ccc3n2)n1` [Compound 1.47, (S)-3-(4-((S)-1-(6-bromoimidazo[1,2-a]pyridin-2-yl)ethylamino)-6-methyl-1,3,5-triazin-2-yl)-4-ethyloxazolidin-2-one], the pIC50 is 5.50.
For the compound `CC[C@H]1COC(=O)N1c1nc(C)nc(N[C@H](C)c2cc3cc(C)ccc3[nH]c2=O)n1` [Compound 1.109, (S)-4-ethyl-3-(4-methyl-6-((R)-1-(6-methyl-2-oxo-1,2-dihydroquinolin-3-yl)ethylamino)-1,3,5-triazin-2-yl)oxazolidin-2-one], the negative-log IC50 (pIC50) was less than 4.52.
The value for `CC[C@H]1COC(=O)N1c1nc(C)nc(N[C@H](C)c2ccc(OCc3ccccc3)cc2)n1` [Compound 1.72, (S)-3-(4-((R)-1-(4-(benzyloxy)phenyl)ethylamino)-6-methyl-1,3,5-triazin-2-yl)-4-ethyloxazolidin-2-one] was less than 4.52; that for `CC[C@H]1COC(=O)N1c1nc(C)nc(N[C@@H](C)c2ccc(OCc3ccccn3)cc2)n1` [Compound 1.62, (S)-4-ethyl-3-(4-methyl-6-((S)-1-(4-(pyridin-2-ylmethoxy)phenyl)ethylamino)-1,3,5-triazin-2-yl)oxazolidin-2-one] was 5.48; that for `Cc1nc(N[C@@H](C)c2ccc(Oc3ccccc3)cc2)nc(N2C(=O)OCC2(C)C)n1` [Compound 1.110, (S)-4,4-dimethyl-3-(4-methyl-6-(1-(4-phenoxyphenyl)ethylamino)-1,3,5-triazin-2-yl)oxazolidin-2-one] was 5.69.
Turning to `CC[C@H]1COC(=O)N1c1nc(C)nc(N[C@@H](C)c2ccc(Oc3ccc(Cl)cc3)c(C)n2)n1` [Compound 1.96, (S)-3-(4-((S)-1-(5-(4-chlorophenoxy)-6-methylpyridin-2-yl)ethylamino)-6-methyl-1,3,5-triazin-2-yl)-4-ethyloxazolidin-2-one], the pIC50 is 5.42.
The value for `CC[C@H]1COC(=O)N1c1nc(C)nc(N[C@H](C)c2ccc(OCc3ccccn3)cc2)n1` [Compound 1.61, (S)-4-ethyl-3-(4-methyl-6-((R)-1-(4-(pyridin-2-ylmethoxy)phenyl)ethylamino)-1,3,5-triazin-2-yl)oxazolidin-2-one] was 4.77.
